Source: publication PMC10244169, “Psychedelics promote plasticity by directly binding to BDNF receptor TrkB” (Nature Neuroscience, 2023)

Columns and labels:
eGFP-tagged TrkB (WT) = molecular target: T1, eGFP-tagged TrkB (WT) (Rattus norvegicus, UniProt Q63604); assay: Microscale thermophoresis (MST) in HEK293T lysates; type: binding
T1 construct: expressed in transfected cells; host or cells: HEK293T
Method: MST experiments were performed using the Monolith NT.115 (Blue/Red) instrument (NanoTemper Technologies). Lysates of HEK293T cells expressing GFP-tagged TrkB (WT, Y433F, TrkA.TM) were lysed, vortexed, sonicated and centrifuged 24 h after transient transfection and used as a source of fluorescently labeled TrkB, similarly to previously described protocols[11],[45]–[47]. The advantage of this approach is the possibility of studying the proteins in close-to-native conditions. However, the presence of other proteins, lipids, nucleic acids and other components of crude cell lysates can alter the diffusion of biomolecules and therefore binding affinities. High viscosity and background signal typically results in the affinity values being orders of magnitude […] than those of more traditional binding assays. […] The measurements were performed in premium coated capillaries (NanoTemper Technologies, MO-K025) using a LED source with 470 nm and 50% infrared-laser power at 25 °C. Analysis was performed using MO Affinity Analysis 2.3. Results were fitted to specific binding with Hill slope equations from GraphPad Prism 9.2.

TrkB (WT) dimerization = molecular target: T2, TrkB (WT) dimerization (Rattus norvegicus, UniProt Q63604); assay: Split-luciferase PCA of TrkB dimerization in N2a cells; type: cell-based; conditions: for Group mean (Mean 2; Control:Vehicle = 100), fig 4f: n=8; for Group mean (Mean 2; Vehicle:vehicle = 100), fig 4d: n=20; for TrkB dimerization time course, group mean (time 0 = 100): TRKB.wt; for TrkB dimerization (PCA), group mean (vehicle = 100): WT; for Group mean (Mean 2; Vehicle:Vehicle = 100), fig 4e: n=48
T2 construct: expressed in transfected cells; host or cells: N2a
Procedure, shortened: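 N2a cells transiently co-transfected with split hGLuc-tagged rat TrkB pairs (WT/WT or Y433F/WT) for dimerization; Ketanserin, M100907 or TRKB.FC added 10 min before treatment. Luminescence read after injection of native coelenterazine ([…] final).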

TrkB(WT):Fyn = molecular target: T3, TrkB(WT):Fyn (Rattus norvegicus, UniProt Q63604); assay: PCA of TrkB interaction with lipid raft Fyn in N2a cells; type: cell-based
T3 construct: expressed in transfected cells; host or cells: N2a
Method: (§1) Ketanserin, M100907 and TRKB.FC were added to the media 10 min before treatment. The PCA method was performed as previously described[11],[75],[76]. Split humanized Gaussia princeps luciferase (hGLuc) was cloned on the C-terminus of the reporter proteins TrkB (WT and Y433F) and lipid raft Fyn. If the reporter proteins that carry complementary halves of the luciferase interact, the enzyme can refold in its functional conformation and, upon addition of its substrate, produce luminescence proportionally to the amount of reporter proteins interacting at a given time. N2a cells were seeded in 96-well plates with opaque walls and transparent bottom (PerkinElmer, ViewPlate 96). Cells were transfected with Lipofectamine 2000 according to the manufacturer’s instructions 24 h post-plating with the PCA pair plasmids: phGLuc(1C)-TrkB(WT) or the mutant phGLuc(1C)-TrkB(Y433F) and phGLuc(2 C)-TrkB(WT) for the dimerization experiments; phGLuc(1C)-lipid raft Fyn and phGLuc(2C)-TrkB(WT) or phGLuc(2C)-TrkB(Y433F) for the lipid raft localization experiments. Forty-eight hours post transfection, cells were treated (40 min, 37 °C) in phenol red-free Dulbecco’s modified Eagle medium without serum. […] The PCA signal was detected with the substrate for the luciferase, native coelenterazine, which was injected into each well directly in the plate reader at a final concentration of […]. One data point was excluded from Fig. 4b by applying Grubb’s method for outlier detection test, which detected it as a significant outlier.

TrkB(Y433F):Fyn = molecular target: T4, TrkB(Y433F):Fyn (Rattus norvegicus, UniProt Q63604, Y433F); assay: as above; type: cell-based; conditions: Y433F^+/− dimers
T4 construct: expressed in transfected cells; host or cells: N2a
Method: as §1

mice = assay: Head-twitch response; type: in vivo, mouse; set-up: key to Mean, figure 7c (head-twitch response) / Mean Diff., figure 7d, Vehicle:Saline vs. Vehicle:LSD / Mean Diff., figure 7d, Vehicle:Saline vs. M100907:Saline / Mean Diff., figure 7d, M100907:Saline vs. M100907:LSD / Mean, figure 7d (head-twitch response) / Mean Diff., figure 7c, WT:Saline vs. WT:LSD / Head-twitch response, Mean: head twitch counts (scored every 2 min over 30 min); conditions: for Mean, figure 7c (head-twitch response): LSD group
Method: Immediately after the last injection, the animals were placed inside a transparent chamber and their activity video-recorded for 30 min. Similarly to previous studies, head twitches were scored as counts every 2 min by observers blinded to treatments and genotypes.

T2 sequence (Q63604 32-821): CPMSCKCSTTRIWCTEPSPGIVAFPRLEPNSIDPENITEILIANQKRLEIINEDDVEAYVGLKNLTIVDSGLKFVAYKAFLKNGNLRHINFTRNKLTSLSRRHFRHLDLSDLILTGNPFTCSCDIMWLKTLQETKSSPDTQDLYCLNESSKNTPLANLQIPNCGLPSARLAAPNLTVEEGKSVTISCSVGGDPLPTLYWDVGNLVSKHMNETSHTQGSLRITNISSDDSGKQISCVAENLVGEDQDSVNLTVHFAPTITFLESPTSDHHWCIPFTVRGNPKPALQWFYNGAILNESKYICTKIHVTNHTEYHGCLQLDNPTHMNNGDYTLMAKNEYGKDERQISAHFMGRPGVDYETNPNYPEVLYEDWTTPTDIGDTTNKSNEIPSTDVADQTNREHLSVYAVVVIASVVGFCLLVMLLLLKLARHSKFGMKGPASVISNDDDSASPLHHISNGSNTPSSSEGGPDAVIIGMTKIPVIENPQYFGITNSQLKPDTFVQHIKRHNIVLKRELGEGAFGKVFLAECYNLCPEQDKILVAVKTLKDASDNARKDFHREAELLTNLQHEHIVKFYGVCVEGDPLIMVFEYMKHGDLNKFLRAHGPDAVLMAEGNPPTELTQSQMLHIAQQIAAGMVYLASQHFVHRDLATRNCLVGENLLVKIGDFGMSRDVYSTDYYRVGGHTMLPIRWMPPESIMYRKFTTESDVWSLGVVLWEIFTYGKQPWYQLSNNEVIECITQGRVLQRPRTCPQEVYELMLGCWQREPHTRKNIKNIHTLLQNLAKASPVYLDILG
T2 sequence (Q63604 32-821): as above
T1 sequence (Q63604 32-821): as above
T4 sequence (Q63604 32-821 Y433F): as the sequence (Q63604 32-821) above, with Y402F counted along it
T3 sequence (Q63604 32-821): as the sequence (Q63604 32-821) above

## CCN(CC)C(=O)C1C=C2c3cccc4[nH]cc(c34)CC2N(C)C1 (stereo not shown) [LSD, lysergic acid diethylamide]
eGFP-tagged TrkB (WT); MST WT
  h (best-fit, 1c/1d): 0.8476
eGFP-tagged TrkB (WT); MST WT, fit ambiguous
  Bmax (best-fit, 1c/1d): ~ 566372
eGFP-tagged TrkB (WT); native (WT) TrkB
  binding by MST: directly bind to native TrkB
TrkB (WT) dimerization; BDNF 0.1 ng ml^−1
  potentiation of BDNF effect on TrkB dimerization: potentiates the effects of very low concentrations of BDNF
TrkB (WT) dimerization; LSD 1nM with BDNF 0.1ng/ml
  Group mean (Mean 2; Control:Vehicle = 100), fig 4f: 198.9
TrkB (WT) dimerization; LSD 1 nM with M100907
  Group mean (Mean 2; Vehicle:vehicle = 100), fig 4d: 146.3
TrkB (WT) dimerization; LSD 1nM, Vehicle (no BDNF)
  Group mean (Mean 2; Control:Vehicle = 100), fig 4f: 131.4
TrkB (WT) dimerization; LSD 1 nM, Vehicle (no M100907)
  Group mean (Mean 2; Vehicle:vehicle = 100), fig 4d: 129.7
TrkB (WT) dimerization; LSD 10 nM with M100907
  Group mean (Mean 2; Vehicle:vehicle = 100), fig 4d: 148
TrkB (WT) dimerization; LSD 10 nM, Vehicle (no M100907)
  Group mean (Mean 2; Vehicle:vehicle = 100), fig 4d: 146.6
TrkB (WT) dimerization; LSD 100 nM with M100907
  Group mean (Mean 2; Vehicle:vehicle = 100), fig 4d: 153.7
TrkB (WT) dimerization; LSD 100 nM, Vehicle (no M100907)
  Group mean (Mean 2; Vehicle:vehicle = 100), fig 4d: 151.3
TrkB (WT) dimerization; LSD 1 µM with M100907
  Group mean (Mean 2; Vehicle:vehicle = 100), fig 4d: 177.5
TrkB (WT) dimerization; LSD 1 µM, Vehicle (no M100907)
  Group mean (Mean 2; Vehicle:vehicle = 100), fig 4d: 148.9
TrkB (WT) dimerization; time 15
  TrkB dimerization time course, group mean (time 0 = 100): 195
TrkB (WT) dimerization; time 60
  TrkB dimerization time course, group mean (time 0 = 100): 250.1
TrkB (WT) dimerization; time 120
  TrkB dimerization time course, group mean (time 0 = 100): 213
TrkB (WT) dimerization; time 240
  TrkB dimerization time course, group mean (time 0 = 100): 184.6
TrkB (WT) dimerization; time 480
  TrkB dimerization time course, group mean (time 0 = 100): 101
TrkB (WT) dimerization; WT TrkB, N2a cells, 1 nM to 1 µM
  TrkB dimerization: fast and long-lasting increase in dimerization
TrkB (WT) dimerization; 1nM
  TrkB dimerization (PCA), group mean (vehicle = 100): 126.2
TrkB (WT) dimerization; 10nM
  TrkB dimerization (PCA), group mean (vehicle = 100): 166.6
TrkB (WT) dimerization; 100nM
  TrkB dimerization (PCA), group mean (vehicle = 100): 191.5
TrkB (WT) dimerization; 1uM
  TrkB dimerization (PCA), group mean (vehicle = 100): 201.7
TrkB (WT) dimerization; treatment alone (other factor Vehicle)
  Group mean (Mean 2; Vehicle:Vehicle = 100), fig 4e: 209.8
TrkB (WT) dimerization; with TrkB.FC
  Group mean (Mean 2; Vehicle:Vehicle = 100), fig 4e: 119.5
TrkB(WT):Fyn
  TrkB interaction with Fyn: increase TrkB interaction with lipid raft-restricted Fyn
TrkB(Y433F):Fyn
  TrkB interaction with Fyn: this effect is lost
mice; M100907:LSD group
  Mean, figure 7d (head-twitch response): 0.4
mice; Vehicle:LSD group
  Mean, figure 7d (head-twitch response): 33
mice; WT mice
  Mean, figure 7c (head-twitch response): 76.8
mice; WT mice, saline minus LSD, Bonferroni's multiple comparisons test
  Mean Diff., figure 7c, WT:Saline vs. WT:LSD: -73.8
mice; Y433F+/- mice
  Mean, figure 7c (head-twitch response): 67.8
mice; Y433F+/- mice, saline minus LSD, Bonferroni's multiple comparisons test
  Mean Diff., figure 7c, Y433F+/-:Saline vs. Y433F+/-:LSD: -63.2
mice; Y433F^+/− mice treated with LSD 0.1 mg kg^−1
  head-twitch response: occurs normally
mice; ext fig 7c, TrkB.WT mice, Time (min) 2
  Head-twitch response, Mean: 2.6
mice; ext fig 7c, TrkB.WT mice, Time (min) 4
  Head-twitch response, Mean: 6.4
mice; ext fig 7c, TrkB.WT mice, Time (min) 6
  Head-twitch response, Mean: 10.6
mice; ext fig 7c, TrkB.WT mice, Time (min) 8
  Head-twitch response, Mean: 7.8
mice; ext fig 7c, TrkB.WT mice, Time (min) 10
  Head-twitch response, Mean: 6.6
mice; ext fig 7c, TrkB.WT mice, Time (min) 12
  Head-twitch response, Mean: 7.6
mice; ext fig 7c, TrkB.WT mice, Time (min) 14
  Head-twitch response, Mean: 5.4
mice; ext fig 7c, TrkB.WT mice, Time (min) 16
  Head-twitch response, Mean: 4.8
mice; ext fig 7c, TrkB.WT mice, Time (min) 18
  Head-twitch response, Mean: 3.6
mice; ext fig 7c, TrkB.WT mice, Time (min) 20
  Head-twitch response, Mean: 4
mice; ext fig 7c, TrkB.WT mice, Time (min) 22
  Head-twitch response, Mean: 4.6
mice; ext fig 7c, TrkB.WT mice, Time (min) 24
  Head-twitch response, Mean: 4.8
mice; ext fig 7c, TrkB.WT mice, Time (min) 26
  Head-twitch response, Mean: 2
mice; ext fig 7c, TrkB.WT mice, Time (min) 28
  Head-twitch response, Mean: 3.2
mice; ext fig 7c, TrkB.WT mice, Time (min) 30
  Head-twitch response, Mean: 2.6
mice; ext fig 7c, TrkB.Y433F mice, Time (min) 2
  Head-twitch response, Mean: 3
mice; ext fig 7c, TrkB.Y433F mice, Time (min) 4
  Head-twitch response, Mean: 6.2
mice; ext fig 7c, TrkB.Y433F mice, Time (min) 6
  Head-twitch response, Mean: 9.4
mice; ext fig 7c, TrkB.Y433F mice, Time (min) 8
  Head-twitch response, Mean: 8.8
mice; ext fig 7c, TrkB.Y433F mice, Time (min) 10
  Head-twitch response, Mean: 6.8
mice; ext fig 7c, TrkB.Y433F mice, Time (min) 12
  Head-twitch response, Mean: 6.2
mice; ext fig 7c, TrkB.Y433F mice, Time (min) 14
  Head-twitch response, Mean: 4.2
mice; ext fig 7c, TrkB.Y433F mice, Time (min) 16
  Head-twitch response, Mean: 5
mice; ext fig 7c, TrkB.Y433F mice, Time (min) 18
  Head-twitch response, Mean: 3.2
mice; ext fig 7c, TrkB.Y433F mice, Time (min) 20
  Head-twitch response, Mean: 2.6
mice; ext fig 7c, TrkB.Y433F mice, Time (min) 22
  Head-twitch response, Mean: 3
mice; ext fig 7c, TrkB.Y433F mice, Time (min) 24
  Head-twitch response, Mean: 3.2
mice; ext fig 7c, TrkB.Y433F mice, Time (min) 26
  Head-twitch response, Mean: 2.2
mice; ext fig 7c, TrkB.Y433F mice, Time (min) 28
  Head-twitch response, Mean: 1.8
mice; ext fig 7c, TrkB.Y433F mice, Time (min) 30
  Head-twitch response, Mean: 2.4
mice; ext fig 7d, Time (min) 2
  Head-twitch response, Mean: 0.2
mice; ext fig 7d, Time (min) 4
  Head-twitch response, Mean: 2.2
mice; ext fig 7d, Time (min) 6
  Head-twitch response, Mean: 2.6
mice; ext fig 7d, Time (min) 8
  Head-twitch response, Mean: 4.2
mice; ext fig 7d, Time (min) 10
  Head-twitch response, Mean: 3
mice; ext fig 7d, Time (min) 12
  Head-twitch response, Mean: 3.8
mice; ext fig 7d, Time (min) 14
  Head-twitch response, Mean: 3.2
mice; ext fig 7d, Time (min) 16
  Head-twitch response, Mean: 2.2
mice; ext fig 7d, Time (min) 18
  Head-twitch response, Mean: 2.4
mice; ext fig 7d, Time (min) 20
  Head-twitch response, Mean: 1.8
mice; ext fig 7d, Time (min) 22
  Head-twitch response, Mean: 1.2
mice; ext fig 7d, Time (min) 24
  Head-twitch response, Mean: 2.2
mice; ext fig 7d, Time (min) 26
  Head-twitch response, Mean: 1.4
mice; ext fig 7d, Time (min) 28
  Head-twitch response, Mean: 1.8
mice; ext fig 7d, Time (min) 30
  Head-twitch response, Mean: 0.8
mice; saline minus LSD, Bonferroni's multiple comparisons test
  Mean Diff., figure 7d, Vehicle:Saline vs. Vehicle:LSD: -30.6
mice; with M100907, saline minus LSD, Bonferroni's multiple comparisons test
  Mean Diff., figure 7d, M100907:Saline vs. M100907:LSD: -0.2
